Reference: patent publication US9034308B2, “Anti-sensitivity, anti-caries, anti-staining, anti-plaque ultra-mild oral hygiene agent” (RHODIA OPERATIONS, priority 2003, dated 2015)

Columns and labels:
[1] = Interaction with calcium phosphates (foaming); type: physicochemical; settings: 1 Kg powder added to 1800 ml of 10% solution, pH ~7
Description: Disappearance of foaming was indicative of loss of surfactant from bulk solution. Increased hydrophobicity of the calcium phosphate was indicative of surfactant adsorption onto the solid particles.
A typical calcium based abrasive tooth paste formulation was prepared using dibasic calcium phosphate, dihydrate as the abrasive and conventional mixing techniques as shown below. […] This finding was in contrast to an earlier patent discussed above (U.S. Pat. No. 4,152,421) and was presumably so because of the strong interaction of the potassium dodecyl phosphate (1.2%) with the calcium phosphate abrasive.

[2] = 1% solution, in vitro; cited from earlier work
[3] = 14C labeling, in the presence of saliva; cited from earlier work

| Compound | amount bonded to 40 mg HA [3] | also measured |
| --- | --- | --- |
| CCCCCCCCCCCCOP(=O)([O-])[O-].[K+].[K+] [potassium dodecyl phosphate] | – | foaming of the solution after addition of dibasic calcium phosphate, dihydrate [1]: significantly reduced |
| dioctyl phosphate | – | rate of calcium demineralization on treated teeth [2]: lower rate of calcium demineralization |
| dodecyl-3 EO monoalkyl phosphate | 0.20 to 0.35 mg | – |
| hexadecyl-8 EO ethoxylate | < 0.05 mg | – |
